From paper PMC6522510 (Nature Communications, 2019)

Experiments:
Set-up in all cases: species or system AML cell lines (8); Primary HTS, single concentration about 10 uM, Cell Titer Glo viability; log10 luminescence, per cent inhibition relative to cycloheximide control
Details in all cases: 72 h, relative to cycloheximide control, log10 luminescence; inhibitor
ML-2 = test system: ML-2
U937 = test system: U937
CMK = test system: CMK
MOLM-13 = test system: MOLM-13
MV4-11 = test system: MV4-11
CHRF288-11 = test system: CHRF288-11
CMS = test system: CMS
M07e = test system: M07e

Structure (SMILES)	ML-2 %inh (ML-2) [%]	U937 %inh (U937) [%]	CMK %inh (CMK) [%]	MOLM-13 %inh (MOLM-13) [%]	MV4-11 %inh (MV4-11) [%]	CHRF288-11 %inh (CHRF288-11) [%]	CMS %inh (CMS) [%]	M07e %inh (M07e) [%]
Nc1c(C(=O)c2cccc(C#CCN3CCCCC3)c2)cnn1-c1ccc(F)cc1 [SJ000581090-1]	0.9731	7.38	-1.859	0.3011	1.177	2.1	8.688	8.075
O=c1[nH]c2nc(NC3CCOCC3)ncc2cc1Oc1ccc(F)cc1F [SJ000581091-1]	-1.12	1.694	-0.7252	-2.415	0.8036	2.671	4.57	7.401
COc1cccc(C2=C(c3cn(C)c4cccc(OC)c34)C(=O)NC2=O)c1 [SJ000581093-1]	1.141	7.981	64.38	14.52	0.2916	15.23	2.878	15.31
Cn1c(=O)c(Sc2ccccc2F)cc2cnc(NC3CCOCC3)nc21 [SJ000581094-1]	-0.9832	-2.114	-1.429	-2.304	1.745	5.078	-0.09142	79.34
Cn1cc(C2=C(c3cn(C)c4c([N+](=O)[O-])cccc34)C(=O)NC2=O)c2ccccc21 [SJ000581096-1]	-1.675	-1.424	1.442	-1.995	1.039	-0.1815	-0.5679	3.87
Cn1cc(C2=C(c3cccnc3)C(=O)NC2=O)c2ccccc21 [SJ000581097-1]	3.521	-1.738	8.732	6.704	3.908	42.59	3.929	1.519
Cn1cc(C2=C(c3cn(C)c4ccc(Cl)cc34)C(=O)NC2=O)c2ccccc21 [SJ000581098-1]	3.034	4.952	47.95	13.33	5.255	10.98	0.498	13.21
Cn1cc(C2=C(c3cn(C)c4ncccc34)C(=O)NC2=O)c2ccccc21 [SJ000581101-1]	0.3677	8.822	41.81	47.28	0.9422	23.35	2.698	5.727
Nc1c(C(=O)c2cccc(OCCN3CCOCC3)c2)cnn1-c1ccc(F)cc1 [SJ000581103-1]	2.31	7.007	0.9343	-0.4893	1.093	-1.374	-1.582	6.806
Nc1c(C(=O)c2cccc(CCS(N)(=O)=O)c2)cnn1-c1ccc(F)cc1 [SJ000581104-1]	1.884	0.2995	1.701	-0.2243	1.774	-1.775	3.265	6.935
Nc1[nH]nc2nc(-c3cccs3)cc(C(F)(F)F)c12 [SJ000581105-1]	1.699	0.05414	-1.06	17.65	7.712	-1.43	2.722	8.033
COc1ccccc1CCN=C1NC(=O)/C(=C/c2ccc3ncccc3c2)S1 [SJ000581106-1]	10.31	6.939	41.08	8.02	10.91	4.589	4.605	24.66
Cn1cc(C2=C(Sc3ccccc3)C(=O)NC2=O)c2ccccc21 [SJ000581108-1]	5.065	7.938	17.14	79.89	3.129	15.38	5.691	13.92
Cn1cc(C2=C(c3ccc4ccccc4c3)C(=O)NC2=O)c2ccccc21 [SJ000581109-1]	4.34	4.798	22.8	1.67	1.463	15.54	2.57	12.46
Nc1c(C(=O)c2cccc(C(O)CO)c2)cnn1-c1ccc(F)cc1 (stereo not shown) [SJ000581110-1]	2.206	-0.488	-1.427	27.67	3.101	9.958	3.504	7.822
CC(=O)Nc1ccc2c(C3=C(c4cn(C)c5ccccc45)C(=O)NC3=O)cn(C)c2c1 [SJ000581111-1]	39.48	75.9	104.7	95.13	74.04	123.6	99.23	89.33
CCNC(=O)[C@@H]1CCCN2C(=O)CC[C@H](NC(=O)[C@H](Cc3ccc(OP(=O)(O)O)cc3)NC(C)=O)C(=O)N12 [SJ000581112-1]	2.455	0.08443	0.5327	0.008932	1.373	-7.883	-0.07964	4.13
Cn1cc(C2=C(c3ccsc3)C(=O)NC2=O)c2ccccc21 [SJ000581113-1]	4.351	0.5485	4.136	31.75	4.067	8.413	3.6	3.37
CS(=O)(=O)N1CCC(Nc2ncc(C(=O)c3c(F)cccc3F)c(N)n2)CC1 [SJ000581114-1]	1.661	3.392	18.19	68.54	0.7328	0.1318	2.662	7.028
COc1cc[nH]c1/C=C1\C(=O)Nc2ccc(F)c(I)c21 [SJ000581115-1]	0.5185	3.766	-0.2359	8.55	2.865	-1.945	4.321	4.603
